pEC50: −log10 of the molar value.
biological target: T1, Estrogen receptor (Homo sapiens, UniProt P03372); assay: ERalpha binding competitors, concentration series, dose response, cell-based, Cos7 ERalpha-GFP, flow cytometry (AID 1223); conditions: not given
T1 sequence (P03372 whole entry): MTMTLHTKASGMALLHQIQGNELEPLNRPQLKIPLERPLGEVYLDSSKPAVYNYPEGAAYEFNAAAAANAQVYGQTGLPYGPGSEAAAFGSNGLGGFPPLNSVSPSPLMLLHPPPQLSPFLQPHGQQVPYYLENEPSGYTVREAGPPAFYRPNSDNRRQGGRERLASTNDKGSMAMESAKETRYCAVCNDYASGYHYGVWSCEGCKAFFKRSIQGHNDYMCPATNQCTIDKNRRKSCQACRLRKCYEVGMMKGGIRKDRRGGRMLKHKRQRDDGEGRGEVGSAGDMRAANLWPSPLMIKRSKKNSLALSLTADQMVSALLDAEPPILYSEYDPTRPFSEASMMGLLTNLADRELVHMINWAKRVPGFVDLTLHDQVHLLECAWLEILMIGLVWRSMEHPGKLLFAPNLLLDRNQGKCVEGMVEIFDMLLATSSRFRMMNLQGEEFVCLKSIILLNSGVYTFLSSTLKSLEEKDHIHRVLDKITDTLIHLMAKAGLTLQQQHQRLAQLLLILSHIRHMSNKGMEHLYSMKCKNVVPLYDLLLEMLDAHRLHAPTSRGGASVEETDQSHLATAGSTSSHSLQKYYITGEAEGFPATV

Compared with Brc1cc2c(cc1[C@@H]1Nc3ccccc3[C@@H]3C=CC[C@@H]31)OCO2, CC(=O)c1ccc2c(c1)C1C=CCC1C(c1cccc([N+](=O)[O-])c1)N2 (stereo not given) [1-[4-(3-nitrophenyl)-3a,4,5,9b-tetrahydro-3H-cyclopenta[c]quinolin-8-yl]ethanone] is lower in pEC50: 6.11 for the first, less than 5.00 for the second.

First: COc1ccccc1N1CCN(C(=O)c2ccc3nc(-c4ccco4)c(-c4ccco4)nc3c2)CC1 [2,3-di-2-furyl-6-{[4-(2-methoxyphenyl)piperazin-1-yl]carbonyl}quinoxaline]
Second: COc1nc(-c2ccc(Cl)cc2)ccc1-c1noc(-c2ccco2)n1 [3-[6-(4-chlorophenyl)-2-methoxy-3-pyridinyl]-5-(2-furanyl)-1,2,4-oxadiazole]
The pEC50 of the first is 0.50 log units higher: 7.81 for the first, 7.31 for the second. The first is the more potent here.

Compared with O=C(Nc1cc(C(F)(F)F)ccc1N1CCOCC1)C1Cc2ccccc2CN1C(=O)c1ccco1 (stereo not given) [2-(2-furoyl)-N-[2-morpholino-5-(trifluoromethyl)phenyl]-3,4-dihydro-1H-isoquinoline-3-carboxamide], Cc1cc(C)c2c(c1)[C@@H]1C=CC[C@@H]1[C@H](c1ccc(S(=O)(=O)N3CCOCC3)cc1)N2 [(3aS,4R,9bR)-6,8-dimethyl-4-[4-(morpholin-4-ylsulfonyl)phenyl]-3a,4,5,9b-tetrahydro-3H-cyclopenta[c]quinoline] is 0.92 log units higher in pEC50: 6.43 for the first, 7.35 for the second.

Cc1cc(C)cc(OCC(=O)Nc2ccc(N3CCCC3)cc2)c1 [2-(3,5-dimethylphenoxy)-N-(4-pyrrolidin-1-ylphenyl)acetamide] and CCn1c(=NC(=O)c2ccc(-n3c(O)ccc3O)cc2)sc2c(OC)ccc(OC)c21 [4-[2,5-bis(oxidanylidene)pyrrolidin-1-yl]-N-(3-ethyl-4,7-dimethoxy-1,3-benzothiazol-2-ylidene)benzamide] cannot be ordered by pEC50: less than 5.00 for the first, less than 5.00 for the second.

First: CC(=O)Oc1ccc(C2Nc3c(C(=O)O)ccc([N+](=O)[O-])c3C3C=CCC32)cc1 (stereo not given) [4-(4-acetoxyphenyl)-9-nitro-3a,4,5,9b-tetrahydro-3H-cyclopenta[c]quinoline-6-carboxylic acid]
Second: COc1ccc(C(=O)NN=C(C)c2ccc3c(c2)C2C=CCC2C(c2ccccc2)N3)cc1 (stereo not given) [SMR000176871]
The pEC50 of the first is lower: less than 5.00 for the first, 5.84 for the second. The second is the more potent here.

Going from O=C(COC(=O)CCC(=O)c1cccs1)NCc1ccco1 [4-keto-4-(2-thienyl)butyric acid [2-(2-furfurylamino)-2-keto-ethyl] ester] to C[C@]12CC[C@@H]3c4ccc(O)cc4[C@@H](O)C[C@H]3[C@@H]1CC[C@@H]2O [(6S,8R,9S,13S,14S,17S)-13-methyl-6,7,8,9,11,12,14,15,16,17-decahydrocyclopenta[a]phenanthrene-3,6,17-triol], the pEC50 falls from 8.37 to 7.44 (0.93 log units). The first is the more potent here.

same assay, conditions: inactive by the depositor's call

COc1cccc(NS(=O)(=O)c2ccc3c(c2)C2C=CCC2C(c2ccc(C(=O)O)cc2)N3)c1 (stereo not given) and COc1ccc(NS(=O)(=O)c2ccc3c(c2)[C@H]2C=CC[C@H]2[C@@H](c2ccc(C(=O)O)cc2)N3)cc1 are within 0.2 log units of each other in pEC50: 5.41 for the first, 5.44 for the second.

O=C(OCC(=O)N1CCN(C(=O)c2ccco2)CC1)c1cc(-c2ccco2)nc2ccccc12 [2-(2-furanyl)-4-quinolinecarboxylic acid [2-[4-[2-furanyl(oxo)methyl]-1-piperazinyl]-2-oxoethyl] ester] and Cc1nnc(SCC(=O)NC(=O)NCc2ccco2)n1Cc1ccccc1 [2-[(4-benzyl-5-methyl-1,2,4-triazol-3-yl)sulfanyl]-N-(furan-2-ylmethylcarbamoyl)acetamide] are within 0.2 log units of each other in pEC50: 7.47 for the first, 7.35 for the second.

Going from O=C(O)c1cc(Cl)c2c(c1)[C@@H]1C=CC[C@@H]1[C@H](c1ccc(S(=O)(=O)N3CCOCC3)cc1)N2 [(3aS,4R,9bR)-6-chloranyl-4-(4-morpholin-4-ylsulfonylphenyl)-3a,4,5,9b-tetrahydro-3H-cyclopenta[c]quinoline-8-carboxylic acid] to COc1ccc(CNC(=O)c2cc(-c3cccs3)on2)cc1 [MLS000087249], the pEC50 rises from 6.00 to 8.01 (2.01 log units).

Compared with Cc1cc(C(=O)Nc2sc3c(c2C#N)CCC3)no1 [MLS000066325], Cn1ccnc1SCC(=O)Nc1ccc2nc(SCC(=O)NC3CC3)sc2c1 [MLS000085771] is 0.89 log units lower in pEC50: 8.50 for the first, 7.61 for the second. The first is the more potent here.
